The term EC50 denotes the concentration giving half of the maximal effect. In general, solubility refers to the concentration that dissolves in the medium under given conditions. What is called Cmax is the maximum level reached in the sampled fluid or tissue. Usually half-life stands for the time needed for the level to fall by half in the phase considered.

The results in this text go back to patent publication US9758561B2 (priority 2014, dated 2017).

The structures appear in SMILES notation. Values after ≈ are worked out from the molar mass of the structure shown. Like-named read-outs stand apart in the source and are kept apart here. Some results are limits rather than exact numbers.

One data set concerns the target T1, human GLP-1 receptor (Homo sapiens, UniProt P43220).
T1 construct: expressed in transfected cells; host or cells: HEK-293
As to the kind of experiment: cAMP response of HEK-293 cells stably expressing human GLP-1 receptor (HTRF). The class given is cell-based. Particulars: Table 6; read-out: EC50 hGLP-1R. The procedure, abridged:
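HEK-293 cells stably expressing the receptor were taken up in HBSS/20 mM HEPES/0.1% BSA with 2 mM IBMX at 400000 cells/ml. They were exposed to increasing concentrations of peptide for 30 minutes at room temperature, and formed cAMP was measured by HTRF.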
A general note: Time-resolved FRET reads energy transfer from a long-lived donor to a nearby acceptor.

In another data set the target is T2, human glucagon receptor (Homo sapiens, UniProt P47871).
T2 construct: expressed in transfected cells; host or cells: HEK-293
As to the kind of experiment: cAMP response of HEK-293 cells stably expressing human glucagon receptor (HTRF). The conditions noted are these: Table 6; read-out: EC50 hGlucagon-R. The data set is classed as cell-based. The method, then: (§1) For preparation, cells were split into T175 culture flasks and grown overnight to near confluency in medium (DMEM/10% FBS). Medium was then removed and cells washed with PBS lacking calcium and magnesium, followed by proteinase treatment with accutase (Sigma-Aldrich cat. no. A6964). Detached cells were washed and resuspended in assay buffer (1×HBSS; 20 mM HEPES, 0.1% BSA, 2 mM IBMX) and cellular density determined. They were then diluted to 400000 cells/ml and 25 μl-aliquots dispensed into the wells of 96-well plates. For measurement, 25 μl of test compound in assay buffer was added to the wells, followed by incubation for 30 minutes at room temperature. […] Potencies of peptidic compounds at the GLP-1, glucagon and GIP receptors were determined by exposing cells expressing human glucagon receptor (hGlucagon R), human GIP receptor (hGIP-R) or human GLP-1 receptor (hGLP-1R) to the listed compounds at increasing concentrations and measuring the formed cAMP as described in Methods.

For another data set, the target named is T3, human GIP receptor (Homo sapiens, UniProt P48546).
T3 construct: expressed in transfected cells; host or cells: HEK-293
T3 sequence (P48546 22-466): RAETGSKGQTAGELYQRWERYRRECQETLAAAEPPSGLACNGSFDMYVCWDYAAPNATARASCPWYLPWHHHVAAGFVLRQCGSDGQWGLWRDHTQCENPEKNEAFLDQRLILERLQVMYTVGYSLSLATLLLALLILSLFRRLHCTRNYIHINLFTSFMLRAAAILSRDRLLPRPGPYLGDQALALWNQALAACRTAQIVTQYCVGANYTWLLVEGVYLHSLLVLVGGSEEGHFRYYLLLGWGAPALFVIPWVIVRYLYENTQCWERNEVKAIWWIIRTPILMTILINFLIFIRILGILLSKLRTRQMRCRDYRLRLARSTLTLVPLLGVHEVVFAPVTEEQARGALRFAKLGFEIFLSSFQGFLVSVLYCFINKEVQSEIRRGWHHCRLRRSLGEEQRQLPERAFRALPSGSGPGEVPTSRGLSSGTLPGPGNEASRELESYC
Description: cAMP response of HEK-293 cells stably expressing human GIP receptor (HTRF). The data set is classed as cell-based. The conditions noted are these: Table 6; read-out: EC50 hGIP-R. As for the experimental part: as §1

Data set [1] in a line: Solubility testing in buffer (HPLC-UV). The data set is classed as physicochemical. The method, then: Prior to the testing of solubility and stability of a peptide batch, its purity (HPLC-UV) was determined. […] Therefore, solutions from solid samples were prepared in different buffer systems with a concentration of 10 mg/mL compound based on the previously determined % purity. HPLC-UV was performed after 2 h of gentle agitation from the supernatant, which was obtained by 20 min of centrifugation at 4500 rpm. […] This analysis also served as starting point (t0) for the stability testing.

Data set [2] is described as follows: Stability testing in solution, 7 days at 40° C. (HPLC-UV). The data set is classed as physicochemical. The method, then: After that time course, the sample was centrifuged for 20 min at 4500 rpm and 0.2 μL of the supernatant were analysed with HPLC-UV.
For determination of the amount of the remaining peptide, the peak areas of the target compound at t0 and t7 were compared, resulting in “% remaining peptide”, following the equation % remaining peptide=[(peak area peptide t7)×100]/peak area peptide t0.
The stability is expressed as “% remaining peptide”.

Data set [3] is described as follows: Pharmacokinetic testing in mice, 1 mg/kg s.c. (LC/MS). The data set is classed as in vivo. Particulars: mouse, plasma, sc. The method, then: Mice were dosed 1 mg/kg subcutaneously (s.c.). The mice were sacrificed and blood samples were collected after 0.25, 0.5, 1, 2, 4, 8, 16 and 24 hours post application. Plasma samples were analyzed after protein precipitation via liquid chromatography mass spectrometry (LC/MS). PK parameters and half-life were calculated using WinonLin Version 5.2.1 (non-compartment model).

For data set [4], the system named is female diet-induced obese (DIO) C57BL/6 mice. As to the kind of experiment: Chronic effect on body weight and body fat in female DIO C57BL/6 mice. The data set is classed as in vivo. Particulars: 50 μg/kg bid s.c., 4 weeks. The method, then: (§2) C57BL/6 Harlan mice are housed in groups in a specific pathogen-free barrier facility on a 12 h light/dark cycle with free access to water and standard or high-fat diet. After prefeeding on high-fat diet, mice are stratified to treatment groups (n=8), so that each group has similar mean body weight. An age-matched group with ad-libitum access to standard chow is included as standard control group. Before the experiment, mice are subcutaneously (s.c.) injected with vehicle solution and weighed for 3 days to acclimate them to the procedures.
Body weight is recorded daily. Two days before start of treatment and on day 26, total fat mass is measured by nuclear magnetic resonance (NMR).
Statistical analyses are performed with Everstat 6.0 by repeated measures two-way ANOVA and Dunnetts post-hoc analyses (glucose profile) and 1-way-ANOVA, followed by Dunnetts post-hoc test (body weight, body fat). Differences versus vehicle-treated DIO control mice are considered statistically significant at the p<0.05 level.
Female obese C57BL/6 mice were treated for 4 weeks twice daily subcutaneously with 50 μg/kg SEQ ID NO: 6, 50 μg/kg SEQ ID NO: 7 or vehicle. Body weight was recorded daily, and body fat content was determined before the start and after 4 weeks of treatment. […] These changes resulted from a decrease in body fat, as shown by the absolute changes in body fat content (Table 10, FIG. 3).
Female obese C57BL/6 mice were treated for 4 weeks twice daily subcutaneously with 50 μg/kg SEQ ID NO: 9 or vehicle. Body weight was recorded daily, and body fat content was determined before the start and after 4 weeks of treatment.

For data set [5] the test system is unchanged. Description: Acute effect on blood glucose in fed female DIO C57BL/6 mice. The data set is classed as in vivo. Particulars: 50 μg/kg s.c., profile over 24 h. The method, then: as §2
The volume of administration is 5 mL/kg. The animals have access to water and their corresponding diet during the experiment. Blood glucose levels are measured at t=0 h, t=1 h, t=2 h, t=3 h, t=4 h, t=6 h and t=24 h (method: Accu-Check glucometer). Blood sampling is performed by tail incision without anaesthesia.
Statistical analyses are performed with Everstat 6.0 by repeated measures two-way ANOVA and Dunnetts post-hoc analyses (glucose profile) and 1-way-ANOVA, followed by Dunnetts post-hoc test (body weight, body fat). Differences versus vehicle-treated DIO control mice are considered statistically significant at the p<0.05 level. […]

T2 sequence (P47871 26-477): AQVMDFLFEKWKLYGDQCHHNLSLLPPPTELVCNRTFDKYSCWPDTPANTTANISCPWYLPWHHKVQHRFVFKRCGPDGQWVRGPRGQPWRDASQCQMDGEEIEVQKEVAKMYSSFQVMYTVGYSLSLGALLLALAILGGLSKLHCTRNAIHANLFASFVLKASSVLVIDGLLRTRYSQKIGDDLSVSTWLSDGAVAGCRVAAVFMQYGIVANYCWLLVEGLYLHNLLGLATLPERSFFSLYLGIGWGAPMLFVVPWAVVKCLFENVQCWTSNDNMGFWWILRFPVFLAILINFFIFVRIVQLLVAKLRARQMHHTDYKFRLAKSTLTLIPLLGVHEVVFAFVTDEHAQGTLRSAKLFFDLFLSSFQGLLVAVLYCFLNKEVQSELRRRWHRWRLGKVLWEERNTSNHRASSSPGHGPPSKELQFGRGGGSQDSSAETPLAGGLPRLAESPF
T1 sequence (P43220 24-463): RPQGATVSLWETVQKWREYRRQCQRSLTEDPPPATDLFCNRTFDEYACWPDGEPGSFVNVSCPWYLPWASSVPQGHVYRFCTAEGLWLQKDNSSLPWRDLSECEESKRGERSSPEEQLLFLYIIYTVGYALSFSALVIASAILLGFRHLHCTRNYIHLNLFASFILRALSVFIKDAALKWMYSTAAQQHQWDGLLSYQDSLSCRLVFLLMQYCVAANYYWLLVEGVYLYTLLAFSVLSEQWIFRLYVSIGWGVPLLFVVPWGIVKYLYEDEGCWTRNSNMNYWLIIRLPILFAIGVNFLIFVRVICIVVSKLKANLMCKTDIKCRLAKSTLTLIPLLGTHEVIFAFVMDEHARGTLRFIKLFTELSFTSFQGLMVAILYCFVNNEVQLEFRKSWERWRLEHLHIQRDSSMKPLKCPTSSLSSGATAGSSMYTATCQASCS

`CCCCCCCCCCCCCCCC(=O)N[C@@H](CCC(=O)N[C@@H](CCC(=O)NCCCC[C@H](NC(=O)[C@H](CCC(N)=O)NC(=O)[C@H](CCCCN)NC(=O)[C@H](CO)NC(=O)[C@H](CC(C)C)NC(=O)[C@H](CC(=O)O)NC(=O)[C@H](CO)NC(=O)[C@@H](NC(=O)[C@H](Cc1ccccc1)NC(=O)[C@@H](NC(=O)CNC(=O)[C@H](CCC(N)=O)NC(=O)[C@@H](CO)NC(=O)[C@@H](N)Cc1c[nH]cn1)[C@@H](C)O)[C@@H](C)O)C(=O)N[C@@H](CC(=O)O)C(=O)N[C@@H](CCC(=O)O)C(=O)N[C@@H](CCC(=O)O)C(=O)N[C@@H](C)C(=O)N[C@@H](C)C(=O)N[C@@H](CCCNC(=N)N)C(=O)N[C@@H](CC(C)C)C(=O)N[C@@H](Cc1ccccc1)C(=O)N[C@H](C(=O)N[C@@H](CCC(=O)O)C(=O)N[C@@H](Cc1c[nH]c2ccccc12)C(=O)N[C@@H](CC(C)C)C(=O)NC(C)(C)C(=O)N[C@@H](C)C(=O)NCC(=O)NCC(=O)N1CCC[C@H]1C(=O)N[C@@H](CO)C(=O)N[C@@H](CO)C(=O)NCC(=O)N[C@@H](C)C(=O)N1CCC[C@H]1C(=O)N1CCC[C@H]1C(=O)N1CCC[C@H]1C(=O)N[C@@H](CO)C(N)=O)[C@@H](C)CC)C(=O)O)C(=O)O` [SEQ ID NO: 9, H-dSer-Q-G-T-F-T-S-D-L-S-K-Q-K(γE-γE-x53)-D-E-E-A-A-R-L-F-I-E-W-L-Aib-A-G-G-P-S-S-G-A-P-P-P-S-NH2]: the EC50 worked out at 0.0018 nM at human GLP-1 receptor, 0.0118 nM at human glucagon receptor and 3.6 nM at human GIP receptor. For the same compound, the solubility at 2 h is 2200 µg/mL (≈ 480 µM) in data set [1] (pH 4.5, target concentration 10 mg/ml, read-out: solubility pH 4.5) and > 8000 µg/mL in data set [1] (pH 7.4, target concentration 10 mg/ml, read-out: solubility pH 7.4). In data set [2] (pH 4.5, 7 days at 40° C. in solution), the “Stability pH 4.5” value turned out to be 77.0 % remaining peptide. For the same compound, the “Stability pH 7.4” value in data set [2] (pH 7.4, 7 days at 40° C. in solution) is 93.0 % remaining peptide. In data set [3], this compound registered a Cmax of 6560 ng/mL. The compound also had a half-life in data set [3] of 3.8 h. For the same compound, the “daily body weight compared to vehicle DIO control mice” value in data set [4] is given as “decrease in daily body weight”. In addition, the Body fat change in data set [4] (Table 11 (Example 8), NMR, mean ± SEM) was -5.65 ± 0.9 g. Besides, the Overall weight change in data set [4] (Table 11 (Example 8), mean ± SEM) is -6.56 ± 1.0 g. For the same compound, in data set [5], the “blood glucose compared to DIO control” value is reported as “decrease in blood glucose”.
